Drawing on patent publication EP2522331A1, “Use of resveratrol and niacinamide” (DSM IP Assets B.V., priority 2011, dated 2012), this text covers inhibition for two compounds.

SMILES strings stand for the structures. Where two headings read alike, the source gives them in different places.

The subject of this experiment is MYO5A. The experiment can be described thus: Gene modulation (RT-qPCR, PCR array mQPA H-Melanocyte-64) in normal human epidermal melanocytes (NHEM). It counts as cell-based. The settings on record: NHEM cells. On the procedure:
Normal human epidermal melanocytes were cultivated for 24 hours. Culture medium was then removed and replaced by fresh medium containing the active ingredient to be evaluated or exempt of it (control). Cells were cultivated for additional 72 hours. All experimental conditions were performed in triplicate.
At the end of the cultivation, the cells were harvested and washed with phosphate buffered saline (PBS) solution and immediately frozen at -80 °C. The expression of selected markers was analyzed using RT-qPCR method on mRNA extracted from cells layer for each treatment condition. The differential expression analysis was performed by PCR arrays of the screening format "mQPA H-Melanocyte-64", which focuses on 64 genes selected for their importance in pigmentation and melanocyte biology.
Total RNA was extracted from each sample using TRI-Reagent®. The amount and quality of the RNA was evaluated using a lab-on-a-chip Bioanalyzer (Agilent technologies). Potential contaminants traces of DNA were removed […] The incorporation of fluorescence in amplified DNA was measured continuously during the PCR cycles. […] The value selected for RE calculations is the "output point" (Ct) of the fluorescence curve. For a given marker, the highest is the cycle number; the lowest, is the mRNA quantity. The RE value is expressed in arbitrary units (AU) according to the equation: (((1)/(2)))^NC x 10^6 [formula] Where NC is the number of cycles.
The analysis of the gene expression of selected melanogenesis genes in NEHM cells treated with resveratrol (5 micrograms/ml) on one side, and Niaciamide (0.5 mg/ml) on the other side, has been compared with the gene expression of the same selected melanogenesis genes in NEHM cells treated with a combination of resveratrol (5 micrograms/ml) and Niaciamide (0.5 mg/ml).

The mark [1] stands for this setting: 72 hours treatment, resveratrol 5 µg/ml, niacinamide 0.5 mg/ml, combination 5 µg/ml + 0.5 mg/ml, read-out: MYO5A (expression ratio compared to control).
Where [2] appears, read: 72 hours, resveratrol 5 micrograms/ml alone or niacinamide 0.5 mg/ml alone, read-out: down-regulation of MYO5A (signed change when compared to untreated cells).

Turning to `NC(=O)c1cccnc1` [Niacinamide, 3-pyridinecarboxamide], the inhibition at 500 µg/mL reads like this: under setting [1], 15%; under setting [2], 15%.
Consider `Oc1ccc(C=Cc2cc(O)cc(O)c2)cc1` [Resveratrol, 3,4',5 trihydroxystilbene], for which the inhibition at 5 µg/mL runs as follows: under setting [1], 25%; under setting [2], 25%.
